According to patent US20180147767A1, “METHODS OF EXTRUDING MULTILAYER FIBERS” (THE BOARD OF TRUSTEES OF UNIVERSITY OF ILLINOIS, priority 2015, published 2018):

Columns and labels:
[1] = test system: RAW 264.7 mouse macrophage cells and MDA-MB-231 human adenocarcinoma cells; assay: Co-localization and migration of macrophages and tumor cells co-cultured in multilayer alginate fibers (CellTracker confocal imaging, Pearson correlation factor, Coloc2); type: cell-based; conditions: for calculated correlation factor (Pearson): Day 4, drug at approximate IC50: 50 μM for ZA and Rac1, 50 nM for GEF; for migration and co-localization of macrophages with tumor cells: co-cultured fibers, four days of incubation, FIG. 6a
From the text: Using CellTracker™-labeling and confocal fluorescence microscopy to quantify the co-localization of the tumor cells and macrophages in co-culture over time (FIG. 8). To calculate correlation factor, ImageJ Fiji with the Coloc2 plugin may be utilized. The images are split into separate channels for macrophages (a) and breast cancer (b) cells and despeckled to remove noise.

[2] = test system: RAW 264.7 mouse macrophage cells and MDA-MB-231 human adenocarcinoma cells; assay: Macrophage to tumor cell volume ratio per fiber (3D stack counting); conditions: Day 4, compared to the other samples
From the text: CellTracker Green CM FDA dye and CellTracker CM-Dil dye (Life Technologies) were used to label RAW and 231 cells respectively according to manufacturer's instructions. Labeled 231 cells were dispersed in the alginate solution at a concentration of 5×10^6 cells/mL. Labeled RAW cells were dispersed in CaCl2 solution at a concentration of 4.5×10^7 cells/mL. After fiber generation, fibers were cut into approximately 20 mm sections and stored in 24-well cell culture plates containing media and pharmacological drugs. […] A vehicle control of 2% DMSO in cell culture media was also used. The cells were incubated at 37° C., 5% CO2 environment, with media changes every 2 days.

[3] = read-out: approximate IC50; cited from earlier work

Row | Compound | calculated correlation factor (Pearson) [1] | migration and co-localization of macrophages with tumor cells [1] | TC/Mϕ ratio [2] | IC50 [3] | calculated correlation factor (Pearson) ([1]; listed as inhibitor of Rac1) | inhibition of migration and co-localization (TC-Mϕ correlation compared to TC/Mϕ ratio) ([1]; FIG. 7b, straight and patterned fibers)
1 | COc1cc2ncnc(Nc3ccc(F)c(Cl)c3)c2cc1OCCCN1CCOCC1 [GEF, Gefitinib] | decreases | distinct impairment of migration and co-localization | – | – | – | –
2 | Cc1ccc(NC(=O)c2cccc(OCc3c(C)noc3C)c2)cc1S(N)(=O)=O [RAC, Rac1 Inhibitor II] | decreases | distinct impairment of migration and co-localization | significantly higher | ~50 µM | return to anti-correlation comparable to initial seeding (Day 0) | highest inhibition of migration and co-localization
